Results on 25 compounds are retold here after patent US10202388B2, “Fused-ring compounds, pharmaceutical composition and uses thereof” (SHANGHAI DE NOVO PHARMATECH CO., LTD., priority 2015, dated 2019).

In assay [1] the target is Human recombinant IDO1 (Homo sapiens (Human), UniProt P14902). As to the kind of experiment: IDO1 enzymatic assay (UV absorption at 321 nm). Format: biochemical. Conditions: human recombinant IDO1, 80 min incubation, room temperature; read-out: hIDO1 IC50. The protocol: The detailed experimental method is as follow:
The compounds described in this disclosure were dissolved in 10% DMSO to predefined concentration. All of the reactions were conducted at room temperature in this disclosure. Human recombinant IDO1 (BPS Bioscience) was added so that its concentration was 200 nm in the reaction buffer solution (200 μL). […] 10 μL test compound solution was added into the above reaction solution (200 μL), so that the final concentration of DMSO in all reaction wells was 0.5%. % concentration was volume %. After 80 min incubation of the reaction solution, the UV absorbance was measured using TECAN Infinite M1000 plate reader. For the negative control (blank), 10 μl of the assay buffer was added instead of the IDO1
All reagents (excluding human recombinant IDO1) were purchased from Sigma Aldrich, MO, USA.
The percent activity in the presence of each compound was calculated according to the following equation: % activity=[(A−Ab)/(At−Ab)]×100, where A=the absorption signal in the presence of the compound, Ab=the absorption signal of blank, At=the absorption signal in the absence of the compound. […] The IC50 was calculated using non-linear regression in Graph Pad Prism® 4.

Assay [2] has as its target HeLa cell IDO1 (Homo sapiens (Human), UniProt P14902). Kind of assay: HeLa cell based IDO1 inhibition assay (kynurenine readout, IFN-γ induced). To be noted: HeLa cells. The protocol:
HeLa cell line was purchased from ATCC, cultured in MEM/EBSS medium supplemented with 10% FBS, penn-step (100,000 U/L), non-essential amino acid (0.1 Mm), sodium pyruvate (1.0 Mm). Cells were cultured at 37° C., 95% humidity and 5% CO2. […] The detailed experimental method is as follow:
25,000 HeLa cells were placed on 96-well plates. Each well contained 100 μl culture medium, subsequently IFN-γ and test compounds at specific concentrations (concentration range between 10 μM and 1 Nm, so that the final volume of culture medium was 200 μL) were added and IFN-γ was used to induce IDO1 expression. After incubation, 140 μL supernatant was transferred to 96-well plates. After adding 6.1 N TCA (10 μL), the plates were continuously incubated at 50° C. for 30 min, to hydrolyze N-formylkynurenine produced by IDO to kynurenine. The reaction solution was then centrifuged at 2500 rpm for 10 min to remove precipitate. 100 μL/well supernatant was then transferred to another 96-well plate. 100 μL of 2% (w/v) 4-N,N-dimethyl aminobenzaldehyde acetic acid solution was added and incubated at room temperature for 10 min. The yellow color derived from kynurenine was recorded by measuring absorbance at 480 nm using a microplate reader (TECAN Infinite M1000 Pro).

The target in assay [3] is HeLa cell based IDO1 (Homo sapiens (Human), UniProt P14902). As to the kind of experiment: Three-point IDO1 cellular assay (HeLa, 10, 100 and 1000 nM). Conditions: HeLa cells, 100 ng/mL IFN-γ, 18 hours; for inhibition values of %: at 1000 nM. The protocol: To perform the 3-point HeLa cell based IDO1 assay, HeLa cells were seeded at 25,000 cells per well into 96-well microplate in 100 μL of growth medium. Cells were incubated at 37° C. and 5% CO2 overnight. The next day 100 μL per well of diluted inhibitor in growth medium at 10, 100 and 1000 nM, respectively, was added at a final concentration of 100 ng/ML human IFN-γ. Cells were incubated at 37° C. in a CO2 incubator for 18 hours. […] The plate was incubated at 50° C. for 30 min to hydrolyze N-formylkynurenine produced by IDO1 to kynurenine. The plate was then centrifuged at 2500 rpm for 10 min to remove sediments. 100 μl of supernatant per well was transferred to another 96-well plate and mixed with 100 μL of 2% (w/v) 4-(Dimethylamino) benzaldehyde in acetic acid. The plate was incubated at room temperature for 10 minutes, the yellow color derived from kynurenine was recorded by measuring absorbance at 480 nm using a microplate reader (TECAN Infinite M1000 Pro). Cell based assays were performed in triplicate at each concentration. The absorbance data were analyzed using the computer software, Graphpad Prism. In the absence of the compound and presence of 100 ng/ML IFN-γ, the absorbance (At) in each data set was defined as 100%. The absorbance of medium blank (Ab) in each data set was defined as 0%. The percent absorbance in the presence of each compound was calculated according to the following equation: % Absorbance=(A−Ab)/(At−Ab), where A=the absorbance in the presence of the compound and IFN-γ, Ab=the absorbance of medium blank, and At=the absorbance in the absence of the compounds and presence of IFN-γ. The values of % absorbance versus the compound concentrations were then determined.
HeLa cell based IDO1, sequence (P14902 whole entry): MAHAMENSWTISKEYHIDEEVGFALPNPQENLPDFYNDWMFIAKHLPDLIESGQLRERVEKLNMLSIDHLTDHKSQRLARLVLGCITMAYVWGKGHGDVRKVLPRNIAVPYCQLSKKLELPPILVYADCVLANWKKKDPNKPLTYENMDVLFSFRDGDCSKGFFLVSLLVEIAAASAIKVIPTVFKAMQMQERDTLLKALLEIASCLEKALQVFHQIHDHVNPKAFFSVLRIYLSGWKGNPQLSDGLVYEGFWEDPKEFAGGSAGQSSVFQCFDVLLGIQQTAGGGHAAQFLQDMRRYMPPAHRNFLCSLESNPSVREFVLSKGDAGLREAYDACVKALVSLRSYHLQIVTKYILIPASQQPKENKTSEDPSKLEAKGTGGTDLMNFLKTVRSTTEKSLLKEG

Human recombinant IDO1, sequence (P14902 whole entry): as above
HeLa cell IDO1, sequence (P14902 whole entry): as above

Turning to `O=C(CC1CCCCC1)NC1C2CC3CC1CC(C(O)CC1c4c(F)cccc4-c4cncn41)(C3)C2` (stereo not shown) [Compound 49], the IC50 in assay [1] and in assay [2] was < 100 nM in each case.
For `OC(CC1c2ccccc2-c2cncn21)C12CC3CC(CC(C3)C1)C2` (stereo not shown) [Compound 1], the IC50 (usually the midpoint of a concentration-inhibition curve) in assay [1] was < 100 nM; in assay [2], 100 to 500 nM.
The like results for `OC(CC1c2c(F)cccc2-c2cncn21)C12CC3CC(CC(C3)C1)C2` (stereo not shown) [Compound 21] were, in that order, < 100 nM and < 100 nM.
On to `OC1C2CC3CC1CC([C@@H](O)CC1c4ccccc4-c4cncn41)(C3)C2` (stereo partly shown) [Compound 10B], for which the IC50 in assay [1] lay within 100 to 500 nM.
With `OC1C2CC3CC1CC([C@@H](O)CC1c4c(F)cccc4-c4cncn41)(C3)C2` (stereo partly shown) [Compound 23B], the IC50 in assay [1] lay in the range of 100 to 500 nM. Moreover, the “inhibition values of %” value in assay [3] is recorded as “greater than 50%”.
For the compound `OC1C2CC3CC1CC([C@H](O)CC1c4c(F)cccc4-c4cncn41)(C3)C2` (stereo partly shown) [Compound 26A], the IC50 in assay [1] and in assay [2] was < 100 nM throughout.
For the compound `OC1C2CC3CC1CC([C@@H](O)CC1c4c(F)cccc4-c4cncn41)(C3)C2` (stereo partly shown) [Compound 26A-2], the IC50 in assay [1] lay in the range of 1000 to 10000 nM.
Take `O=C(C[C@@H]1c2ccccc2-c2cncn21)C12CC3CC(CC(C3)C1)C2` (single isomer, unassigned) [Compound 1-3]: the IC50 in assay [1] and in assay [2] was < 100 nM each time.
As to `O=C(NC1C2CC3CC1CC(C(O)CC1c4ccccc4-c4cncn41)(C3)C2)c1ccccc1` (single isomer, unassigned) [Compound 52B], the IC50 in assay [1] was 100 to 500 nM; in assay [2], < 100 nM.
`OC1C2CC3CC1CC(C(O)CC1c4ccccc4-c4cncn41)(C3)C2` (stereo not shown) [Compound 10A-3]: the IC50 in assay [1] lay within 1000 to 10000 nM.
Same read-out and setting: in the case of `OC(CC1c2cccc(F)c2-c2cncn21)C12CC3CC(CC(C3)C1)C2` (stereo not shown) [compound 8] it was 100 to 500 nM.
As to `OC1C2CC3CC1CC(C(O)CC1c4ccccc4-c4cncn41)(C3)C2` (stereo not shown) [Compound 10A], the IC50 in assay [1] and in assay [2] was < 100 nM each time.
Regarding `OC(CC1c2cc(F)ccc2-c2cncn21)C12CC3CC(CC(C3)C1)C2` (stereo not shown) [compound 7], in assay [1], the IC50 is 100 to 500 nM.
On to `OC(CC1c2cccnc2-c2cncn21)C1CCCCC1` (stereo not shown) [compound 2], for which, in assay [1], the IC50 lay within 1000 to 10000 nM.
With `O=S(=O)(Cc1ccccc1)NC1C2CC3CC1CC(C(O)CC1c4c(F)cccc4-c4cncn41)(C3)C2` (stereo not shown) [Compound 45A], the IC50 in assay [1] and in assay [2] was < 100 nM each time.
On to `O=C(Nc1ccccc1)NC1C2CC3CC1CC(C(O)CC1c4c(F)cccc4-c4cncn41)(C3)C2` (stereo not shown) [Compound 55], for which the IC50 in assay [1] and in assay [2] was < 100 nM in each case.
Regarding `OC(CC1c2ccccc2-c2cncn21)C12CC3CC(C1)C(c1ccccc1)C(C3)C2` (stereo not shown) [Compound 62A], in assay [1], the IC50 is < 100 nM. In assay [3], the “inhibition values of %” value was “greater than 50%”.
For `O=C(Cc1ccccc1)NC1C2CC3CC1CC(C(O)CC1c4ccccc4-c4cncn41)(C3)C2` (single isomer, unassigned) [Compound 53A], the concentration for half-maximal inhibition (IC50) in assay [1] is < 100 nM. In addition, in assay [3] (at 100 nM), the inhibition (usually the share of the control response that was lost under treatment) at 0.1 µM is > 50%.
`CC1(O)C2CC3CC1CC([C@@H](O)CC1c4ccccc4-c4cncn41)(C3)C2` (stereo partly shown) [Compound 14A-1]: the IC50 in assay [1] was in the range of 1000 to 10000 nM.
On the same count and under the same terms, in the case of `O=C(C[C@H]1c2ccccc2-c2cncn21)C12CC3CC(CC(C3)C1)C2` (single isomer, unassigned) [Compound 1-1] it was 1000 to 10000 nM; in that of `OC1C2CC3CC1CC([C@@H](O)CC1c4c(F)cccc4-c4cncn41)(C3)C2` (stereo partly shown) [Compound 26B], 100 to 500 nM.
On to `O=C(C[C@@H]1c2ccccc2-c2cncn21)C12CC3CC(CC(C3)C1)C2` (single isomer, unassigned) [Compound 1-4], for which the IC50 in assay [1] lay within 1000 to 10000 nM.
Consider `OC1C2CC3CC1CC([C@H](O)CC1c4c(F)cccc4-c4cncn41)(C3)C2` (stereo partly shown) [Compound 23A-2], for which the IC50 in assay [1] was in the range of 1000 to 10000 nM.
Still for that read-out and setting: the figure for `OC(CC1c2ncccc2-c2cncn21)C1CCCCC1` (stereo not shown) [compound 3] is 100 to 500 nM; for `OC1C2CC3CC1CC([C@@H](O)CC1c4c(F)cccc4-c4cncn41)(C3)C2` (stereo partly shown) [Compound 23A-4] it is 1000 to 10000 nM.
